Experimental data taken from PMC6154393 (Bioorganic & medicinal chemistry, 2018).
Values after ≈ are worked out from the molar mass of the structure shown.

Legend:
[1] = test system: non-replicating Mtb (H37Rv); assay: microbe, parasite or virus in culture; type: cell-based; conditions: Mycobacterium tuberculosis, 240 h, read-out: MIC (LORA)
in vitro [2] = conditions: monkey
Mycobacterium smegmatis = conditions: cited from earlier work
in vitro [3] = conditions: human, Caco-2
Mtb Erdman strain = assay: BALB/c acute infection model, oral administration; type: in vivo, Mycobacterium tuberculosis
[4] = mouse, in vivo, iv, 10 mg/kg
[5] = test system: intracellular Mtb CDC1551-tdTomato in macrophages (J774A.1 cells); assay: Killing effect against intracellular Mtb in J774A.1 macrophages; type: cell-based, Mycobacterium tuberculosis; conditions: at 2xMIC; for Killing of intracellular Mtb (in words): J774A.1 macrophages
in vivo = conditions: BALB/c, mouse, po, 30 mg/kg

## C=C[C@]1(C)C[C@@H](OC(=O)CSC(C)(C)CNC(=O)[C@H](N)CC(C)C)[C@]2(C)[C@H](C)CC[C@]3(CC[C@@H](O)[C@H]32)[C@@H](C)[C@@H]1O [UT-820 (4)]
[1]
  MIC: 1.04 to 3.46 µg/mL (≈ 1.79 to 5.96 µM)

## CC[C@@H](CO)NCCN[C@@H](CC)CO [Ethambutol (EMB), Ethambutol]
In vitro [2]
  IC50 at 72 h: > 200 µg/mL

## C=C[C@]1(C)C[C@@H](OC(=O)CSC(C)(C)CNC(=O)[C@H](N)C(C)C)[C@]2(C)[C@H](C)CC[C@]3(CCC(=O)[C@H]32)[C@@H](C)[C@@H]1O [Valnemulin]
Mycobacterium smegmatis
  MIC: 8 to 16 µg/mL
In vitro [2]
  IC50 at 72 h: 15 µg/mL (≈ 26.6 µM)

## CO[C@H]1/C=C/O[C@@]2(C)Oc3c(C)c(O)c4c(O)c(c(/C=N/N5CCN(C)CC5)c(O)c4c3C2=O)NC(=O)/C(C)=C\C=C\[C@H](C)[C@H](O)[C@@H](C)[C@@H](O)[C@@H](C)[C@H](OC(C)=O)[C@@H]1C [Rifampicin (RIF), Rifampicin]
In vitro [2]
  IC50 at 72 h: > 200 µg/mL

## CC[C@]1(C)C[C@@H](OC(=O)CSC(C)(C)CNC(=O)[C@H](N)CC(C)C)[C@]2(C)[C@H](C)CC[C@]3(CCC(=O)[C@H]32)[C@@H](C)[C@@H]1O [UT-815 (3)]
[1]
  MIC: 1.04 to 3.46 µg/mL (≈ 1.79 to 5.96 µM)

## CNC(=C[N+](=O)[O-])NCCSCc1ccc(CN(C)C)o1 [Ranitidine]
In vitro [3]
  Papp A→B at 2 h, 10 µM: 0.237 ×10⁻⁶ cm/s
  efflux ratio at 2 h, 10 µM: 5

## C=C[C@]1(C)C[C@@H](OC(=O)CSC(C)(C)CNC(=O)[C@H](N)CC(C)C)[C@]2(C)[C@H](C)CC[C@]3(CCC(=O)[C@H]32)[C@@H](C)[C@@H]1O [UT-810 (2)]
[1]
  MIC: 1.04 to 3.46 µg/mL (≈ 1.8 to 5.98 µM)

## NNC(=O)c1ccncc1 [Isoniazid (INH), Isoniazid, reference compound]
Mtb Erdman strain; 2.5 mg/kg, 3 weeks, lung burden relative to untreated control
  Log reduction: about 4 Log10
In vitro [2]
  IC50 at 72 h: > 200 µg/mL

## CC(=O)NC[C@H]1CN(c2ccc(N3CCOCC3)c(F)c2)C(=O)O1 [Linezolid]
In vitro [2]
  IC50 at 72 h: > 200 µg/mL

## CC[C@]1(C)C[C@@H](OC(=O)CSC(C)(C)CNC(=O)[C@H](N)CC(C)C)[C@]2(C)[C@H](C)CC[C@]3(CC[C@@H](O)[C@H]32)[C@@H](C)[C@@H]1O [UT-800 (1)]
[1]
  MIC: 1.04 to 3.46 µg/mL (≈ 1.78 to 5.94 µM)
[4]
  AUC0-24h: 66,281 ng•h/g
Mtb Erdman strain; 100 mg/kg, oral, 3 weeks, lungs, BALB/c mice, mean of 5
  Log10 cfu/mouse: 8.1E+05
Mtb Erdman strain; 200 mg/kg, 3 weeks
  Viable organisms persisted: 5.6-5.7 log10 cfu/mouse
Mtb Erdman strain; 200 mg/kg, oral, 3 weeks, lungs, BALB/c mice, mean of 5
  Log10 cfu/mouse: 4.4E+05
Mtb Erdman strain; in vivo
  Log10 cfu/mouse: 1.2E+06
[5]; J774A.1 cells, Mtb CDC1551-tdTomato
  Time to kill Mtb in infected macrophages: ≤ 72 h
[5]
  Killing of intracellular Mtb (in words): kills intracellular Mtb faster than rifampicin
[5]; listed as 1
  Killing of intracellular Mtb (in words): killed intracellular Mtb more effectively than INH and RIF
In vivo
  Tmax: ≤ 1 h
